Source: patent US20220047594A1, “METHOD FOR TREATING INTERSTITIAL LUNG DISEASE” (ALTAVANT SCIENCES GmbH, priority 2018, published 2022)

Legend:
TPH1 = target: T1, TPH1 (Mus musculus, UniProt P17532); settings: amorphous form, U.S. Pat. No. 9,199,994 Example 63i and Table 27; cited from earlier work
T1 construct: host or cells: mice (in vivo)
T1 sequence (P17532 1-447): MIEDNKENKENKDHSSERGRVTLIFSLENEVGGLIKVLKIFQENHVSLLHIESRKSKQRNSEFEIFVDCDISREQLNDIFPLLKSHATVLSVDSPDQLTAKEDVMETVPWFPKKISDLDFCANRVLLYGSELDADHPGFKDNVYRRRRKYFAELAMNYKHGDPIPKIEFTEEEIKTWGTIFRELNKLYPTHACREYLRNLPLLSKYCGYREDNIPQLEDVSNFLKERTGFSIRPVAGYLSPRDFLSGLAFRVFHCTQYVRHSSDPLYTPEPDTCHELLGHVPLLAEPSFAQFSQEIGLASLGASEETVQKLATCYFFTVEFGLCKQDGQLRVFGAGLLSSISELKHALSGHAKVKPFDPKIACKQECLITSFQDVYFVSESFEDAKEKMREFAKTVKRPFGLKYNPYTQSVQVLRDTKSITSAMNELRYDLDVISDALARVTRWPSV

[1] = system: bleomycin-induced mouse model; settings: inflammatory phase and fibrogenic phase; cited from earlier work
[2] = stability and shelf life of the crystalline polymorphs of Compound A; type: physicochemical; settings: compared to the crystalline Form 1 polymorph; particularly at temperatures of less than 95° C.
Text: The compound may be used to prevent or treat IPF in either an amorphous or crystalline form. Two different polymorph crystalline forms are identified by x-ray powder diffraction patterns set forth in FIG. 1 (Form 3) and FIG. 2 (Form 1) as well as Tables 1 and 2 (Form 3) and Tables 3 and 4 (Form 1).

[3] = system: bleomycin-induced mouse model; settings: cited from earlier work

In the case of CCOC(=O)[C@@H]1CC2(CCN(c3cc(O[C@H](c4ccc(Cl)cc4-c4ccccc4)C(F)(F)F)nc(N)n3)CC2)CN1 [Compound A, (S)-ethyl 8-(2-amino-6-((R)-1-(5-chloro-[1,1′-biphenyl]-2-yl)-2,2,2-trifluoroethoxy)pyrimidin-4-yl)-2,8-diazaspiro[4.5]decane-3-carboxylate], the “efficacy in inhibiting TPH1 in mice” value (TPH1) is given as “demonstrated”.
For CC1CCN(CC[C@H]2CCCN2S(=O)(=O)c2cccc(O)c2)CC1 [SB-269970], the “efficacy in attenuating pulmonary fibrosis” value [1] is given as “attenuating in both the inflammatory phase and the fibrogenic phase”.
For CCOC(=O)[C@@H]1CC2(CCN(c3cc(O[C@H](c4ccc(Cl)cc4-c4ccccc4)C(F)(F)F)nc(N)n3)CC2)CN1 [crystalline Form 3, (S)-ethyl 8-(2-amino-6-((R)-1-(5-chloro-[1,1′-biphenyl]-2-yl)-2,2,2-trifluoroethoxy)pyrimidin-4-yl)-2,8-diazaspiro[4.5]decane-3-carboxylate], the “stability and shelf life” value [2] was “substantially greater stability and shelf life”.
For CCN(CC)C(=O)N[C@H]1C[C@@H]2c3cccc4[nH]cc(c34)C[C@H]2N(C)C1 [terguride], the “lung function, histology and collagen content” value ([3]; bleomycin-induced mouse model, treated mice) is given as “improved lung function and histology and collagen content”, the tolerability ([3]; mouse, in vivo) is given as “well-tolerated” and the “efficacy in attenuating pulmonary fibrosis” value [1] is given as “attenuating in both the inflammatory phase and the fibrogenic phase”.
